According to patent US10844077B2, “Thiazolyl-containing compounds for treating proliferative diseases” (Dana-Farber Cancer Institute, Inc., priority 2014, dated 2020):
Like-named read-outs stand apart in the source and are kept apart here.

Experiments:
Assay type in all cases: cell-based
[1] = target: kinases in BCWM.1 cells (Homo sapiens, UniProt O95747); conditions: OSR1; Lys2; 1 μM, 90 min; GF
Protocol: (§1) The cells were harvested and lysed. […] Bound kinases were identified and quantitated by ACTIVX as described in Patricelli et al., Biochemistry, 2007, 46(2): 350-358. The compounds were tested in duplicates against duplicate or quadruplicate control samples.

[2] = target: kinases in BCWM.1 cells (Homo sapiens, UniProt P12931); conditions: SRC; Lys1; 1 μM, 90 min; GF
kinases in BCWM.1 cells (Homo sapiens, UniProt P12931), sequence (P12931 2-536 limits assumed): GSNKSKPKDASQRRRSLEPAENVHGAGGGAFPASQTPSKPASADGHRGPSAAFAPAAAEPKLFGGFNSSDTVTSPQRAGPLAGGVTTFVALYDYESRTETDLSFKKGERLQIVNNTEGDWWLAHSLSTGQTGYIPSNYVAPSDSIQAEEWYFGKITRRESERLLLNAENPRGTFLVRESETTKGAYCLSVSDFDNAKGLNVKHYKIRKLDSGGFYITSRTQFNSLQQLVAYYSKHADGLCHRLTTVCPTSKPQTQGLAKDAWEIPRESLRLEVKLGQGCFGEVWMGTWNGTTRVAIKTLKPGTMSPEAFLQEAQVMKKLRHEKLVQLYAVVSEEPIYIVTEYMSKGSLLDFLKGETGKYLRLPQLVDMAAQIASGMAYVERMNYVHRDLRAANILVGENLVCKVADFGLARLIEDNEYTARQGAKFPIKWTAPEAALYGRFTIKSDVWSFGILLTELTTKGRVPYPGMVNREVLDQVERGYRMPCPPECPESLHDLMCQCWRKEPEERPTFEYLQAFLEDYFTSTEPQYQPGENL
Protocol: as §1

[3] = target: kinases in BCWM.1 cells (Homo sapiens, UniProt P15735); conditions: PHKg2; Lys1; 1 μM, 90 min; GF
Protocol: as §1

[4] = target: kinases in BCWM.1 cells (Homo sapiens, UniProt P19525); conditions: PKR; Lys2; 1 μM, 90 min; GF
kinases in BCWM.1 cells (Homo sapiens, UniProt P19525), sequence (P19525 2-551 limits assumed): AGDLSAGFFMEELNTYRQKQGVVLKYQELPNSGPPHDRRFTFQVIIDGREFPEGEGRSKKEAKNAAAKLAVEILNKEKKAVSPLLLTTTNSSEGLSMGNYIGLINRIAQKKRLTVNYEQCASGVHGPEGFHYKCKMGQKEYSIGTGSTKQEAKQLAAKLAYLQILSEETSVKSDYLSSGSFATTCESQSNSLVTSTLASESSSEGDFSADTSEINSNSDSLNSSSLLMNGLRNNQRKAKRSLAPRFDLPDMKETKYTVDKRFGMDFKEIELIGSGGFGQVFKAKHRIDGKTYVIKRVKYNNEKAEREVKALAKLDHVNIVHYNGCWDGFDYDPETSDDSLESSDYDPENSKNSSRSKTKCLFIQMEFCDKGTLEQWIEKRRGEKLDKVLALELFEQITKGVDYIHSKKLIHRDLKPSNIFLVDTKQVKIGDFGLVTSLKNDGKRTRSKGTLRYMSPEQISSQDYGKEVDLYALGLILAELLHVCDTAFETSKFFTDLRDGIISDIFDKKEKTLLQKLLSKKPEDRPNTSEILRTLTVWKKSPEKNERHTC
Protocol: as §1

[5] = target: kinases in BCWM.1 cells (Homo sapiens, UniProt P21127); conditions: PITSLRE; Lys2; 1 μM, 90 min; GF
Protocol: as §1

[6] = target: kinases in BCWM.1 cells (Homo sapiens, UniProt P23443); conditions: p70S6K; Lys2; 1 μM, 90 min; GF
Protocol: as §1

[7] = target: kinases in BCWM.1 cells (Homo sapiens, UniProt P29597); conditions: TYK2 domain2; Activation Loop; 1 μM, 90 min; GF
Protocol: as §1

[8] = target: kinases in BCWM.1 cells (Homo sapiens, UniProt P42338); conditions: PIK3CB; ATP; 1 μM, 90 min; GF
Protocol: as §1

[9] = target: kinases in BCWM.1 cells (Homo sapiens, UniProt P48426); conditions: PIP4K2A; ATP; 1 μM, 90 min; GF
Protocol: as §1

[10] = target: kinases in BCWM.1 cells (Homo sapiens, UniProt P51812); conditions: Lys2, 1 μM, 90 min, GF
Protocol: as §1

[11] = target: kinases in BCWM.1 cells (Homo sapiens, UniProt P51955); conditions: NEK2; Lys2; 1 μM, 90 min; GF
Protocol: as §1

[12] = target: kinases in BCWM.1 cells (Homo sapiens, UniProt Q15208); conditions: NDR1; Lys2; 1 μM, 90 min; GF
Protocol: as §1

[13] = target: kinases in BCWM.1 cells (Homo sapiens, UniProt Q16512); conditions: PKN1; Lys1; 1 μM, 90 min; GF
Protocol: as §1

[14] = target: kinases in BCWM.1 cells (Homo sapiens, UniProt Q16816); conditions: PHKg1; Protein Kinase Domain; 1 μM, 90 min; GF
Protocol: as §1

[15] = target: kinases in BCWM.1 cells (Homo sapiens, UniProt Q58A45); conditions: PAN3; Protein Kinase Domain; 1 μM, 90 min; GF
Protocol: as §1

[16] = target: kinases in BCWM.1 cells (Homo sapiens, UniProt Q7RTN6); conditions: STLK5; Activation Loop; 1 μM, 90 min; GF
Protocol: as §1

[17] = target: kinases in BCWM.1 cells (Homo sapiens, UniProt Q86SG6); conditions: NEK8; Lys2; 1 μM, 90 min; GF
Protocol: as §1

[18] = target: kinases in BCWM.1 cells (Homo sapiens, UniProt Q86UE8); conditions: TLK2; Lys2; 1 μM, 90 min; GF
Protocol: as §1

[19] = target: kinases in BCWM.1 cells (Homo sapiens, UniProt Q8TBX8); conditions: PIP4K2C; ATP; 1 μM, 90 min; GF
Protocol: as §1

[20] = target: kinases in BCWM.1 cells (Homo sapiens, UniProt Q96PY6); conditions: NEK1; Lys2; 1 μM, 90 min; GF
Protocol: as §1

[21] = target: kinases in BCWM.1 cells (Homo sapiens, UniProt Q96S44); conditions: PRPK; ATP Loop; 1 μM, 90 min; GF
Protocol: as §1

[22] = target: kinases in BCWM.1 cells (Homo sapiens, UniProt Q9H2G2); conditions: SLK; Lys2; 1 μM, 90 min; GF
Protocol: as §1

[23] = target: kinases in BCWM.1 cells (Homo sapiens, UniProt Q9NRH2); conditions: SNRK; Lys2; 1 μM, 90 min; GF
Protocol: as §1

[24] = target: kinases in BCWM.1 cells (Homo sapiens, UniProt Q9NZJ5); conditions: PEK; Lys2; 1 μM, 90 min; GF
kinases in BCWM.1 cells (Homo sapiens, UniProt Q9NZJ5), sequence (Q9NZJ5 30-1116 limits assumed): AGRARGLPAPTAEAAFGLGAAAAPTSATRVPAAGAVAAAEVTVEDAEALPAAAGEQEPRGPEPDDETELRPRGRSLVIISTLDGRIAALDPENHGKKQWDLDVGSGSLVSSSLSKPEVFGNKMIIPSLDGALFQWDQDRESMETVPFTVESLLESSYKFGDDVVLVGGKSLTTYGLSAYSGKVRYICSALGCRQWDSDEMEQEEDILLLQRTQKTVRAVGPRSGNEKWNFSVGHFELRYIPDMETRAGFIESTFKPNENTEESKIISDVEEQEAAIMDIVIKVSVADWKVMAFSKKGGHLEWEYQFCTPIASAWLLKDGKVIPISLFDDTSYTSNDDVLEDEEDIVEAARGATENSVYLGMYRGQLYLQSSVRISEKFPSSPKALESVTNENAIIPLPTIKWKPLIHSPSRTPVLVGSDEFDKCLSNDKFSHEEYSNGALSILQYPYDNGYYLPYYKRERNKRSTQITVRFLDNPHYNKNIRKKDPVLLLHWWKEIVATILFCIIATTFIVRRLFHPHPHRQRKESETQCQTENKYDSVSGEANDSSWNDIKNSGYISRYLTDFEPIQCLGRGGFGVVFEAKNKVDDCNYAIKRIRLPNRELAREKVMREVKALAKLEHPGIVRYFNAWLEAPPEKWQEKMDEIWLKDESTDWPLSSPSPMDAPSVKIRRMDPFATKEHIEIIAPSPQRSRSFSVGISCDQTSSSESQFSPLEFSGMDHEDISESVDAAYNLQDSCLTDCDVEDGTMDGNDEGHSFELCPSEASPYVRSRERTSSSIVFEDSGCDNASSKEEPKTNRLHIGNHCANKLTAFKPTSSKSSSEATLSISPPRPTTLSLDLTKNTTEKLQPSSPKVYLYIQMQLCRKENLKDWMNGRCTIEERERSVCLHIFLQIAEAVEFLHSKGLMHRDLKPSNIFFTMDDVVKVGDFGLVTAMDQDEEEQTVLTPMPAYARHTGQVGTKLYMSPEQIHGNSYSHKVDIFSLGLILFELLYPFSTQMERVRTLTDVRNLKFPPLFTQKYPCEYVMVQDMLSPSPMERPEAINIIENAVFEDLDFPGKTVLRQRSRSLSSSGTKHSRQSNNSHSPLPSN
Protocol: as §1

[25] = target: kinases in BCWM.1 cells (Homo sapiens, UniProt Q9UHD2); conditions: TBK1; Lys1; 1 μM, 90 min; GF
Protocol: as §1

[26] = target: kinases in BCWM.1 cells (Homo sapiens, UniProt Q9UL54); conditions: TAO2; Lys2; 1 μM, 90 min; GF
Protocol: as §1

[27] = target: kinases in BCWM.1 cells (Homo sapiens, UniProt Q9Y2H1); conditions: NDR2; Lys2; 1 μM, 90 min; GF
Protocol: as §1

[28] = target: kinases in BCWM.1 cells (Homo sapiens, UniProt Q9Y2I7); conditions: PIP5K3; ATP; 1 μM, 90 min; GF
kinases in BCWM.1 cells (Homo sapiens, UniProt Q9Y2I7), sequence (Q9Y2I7 2-2098 limits assumed): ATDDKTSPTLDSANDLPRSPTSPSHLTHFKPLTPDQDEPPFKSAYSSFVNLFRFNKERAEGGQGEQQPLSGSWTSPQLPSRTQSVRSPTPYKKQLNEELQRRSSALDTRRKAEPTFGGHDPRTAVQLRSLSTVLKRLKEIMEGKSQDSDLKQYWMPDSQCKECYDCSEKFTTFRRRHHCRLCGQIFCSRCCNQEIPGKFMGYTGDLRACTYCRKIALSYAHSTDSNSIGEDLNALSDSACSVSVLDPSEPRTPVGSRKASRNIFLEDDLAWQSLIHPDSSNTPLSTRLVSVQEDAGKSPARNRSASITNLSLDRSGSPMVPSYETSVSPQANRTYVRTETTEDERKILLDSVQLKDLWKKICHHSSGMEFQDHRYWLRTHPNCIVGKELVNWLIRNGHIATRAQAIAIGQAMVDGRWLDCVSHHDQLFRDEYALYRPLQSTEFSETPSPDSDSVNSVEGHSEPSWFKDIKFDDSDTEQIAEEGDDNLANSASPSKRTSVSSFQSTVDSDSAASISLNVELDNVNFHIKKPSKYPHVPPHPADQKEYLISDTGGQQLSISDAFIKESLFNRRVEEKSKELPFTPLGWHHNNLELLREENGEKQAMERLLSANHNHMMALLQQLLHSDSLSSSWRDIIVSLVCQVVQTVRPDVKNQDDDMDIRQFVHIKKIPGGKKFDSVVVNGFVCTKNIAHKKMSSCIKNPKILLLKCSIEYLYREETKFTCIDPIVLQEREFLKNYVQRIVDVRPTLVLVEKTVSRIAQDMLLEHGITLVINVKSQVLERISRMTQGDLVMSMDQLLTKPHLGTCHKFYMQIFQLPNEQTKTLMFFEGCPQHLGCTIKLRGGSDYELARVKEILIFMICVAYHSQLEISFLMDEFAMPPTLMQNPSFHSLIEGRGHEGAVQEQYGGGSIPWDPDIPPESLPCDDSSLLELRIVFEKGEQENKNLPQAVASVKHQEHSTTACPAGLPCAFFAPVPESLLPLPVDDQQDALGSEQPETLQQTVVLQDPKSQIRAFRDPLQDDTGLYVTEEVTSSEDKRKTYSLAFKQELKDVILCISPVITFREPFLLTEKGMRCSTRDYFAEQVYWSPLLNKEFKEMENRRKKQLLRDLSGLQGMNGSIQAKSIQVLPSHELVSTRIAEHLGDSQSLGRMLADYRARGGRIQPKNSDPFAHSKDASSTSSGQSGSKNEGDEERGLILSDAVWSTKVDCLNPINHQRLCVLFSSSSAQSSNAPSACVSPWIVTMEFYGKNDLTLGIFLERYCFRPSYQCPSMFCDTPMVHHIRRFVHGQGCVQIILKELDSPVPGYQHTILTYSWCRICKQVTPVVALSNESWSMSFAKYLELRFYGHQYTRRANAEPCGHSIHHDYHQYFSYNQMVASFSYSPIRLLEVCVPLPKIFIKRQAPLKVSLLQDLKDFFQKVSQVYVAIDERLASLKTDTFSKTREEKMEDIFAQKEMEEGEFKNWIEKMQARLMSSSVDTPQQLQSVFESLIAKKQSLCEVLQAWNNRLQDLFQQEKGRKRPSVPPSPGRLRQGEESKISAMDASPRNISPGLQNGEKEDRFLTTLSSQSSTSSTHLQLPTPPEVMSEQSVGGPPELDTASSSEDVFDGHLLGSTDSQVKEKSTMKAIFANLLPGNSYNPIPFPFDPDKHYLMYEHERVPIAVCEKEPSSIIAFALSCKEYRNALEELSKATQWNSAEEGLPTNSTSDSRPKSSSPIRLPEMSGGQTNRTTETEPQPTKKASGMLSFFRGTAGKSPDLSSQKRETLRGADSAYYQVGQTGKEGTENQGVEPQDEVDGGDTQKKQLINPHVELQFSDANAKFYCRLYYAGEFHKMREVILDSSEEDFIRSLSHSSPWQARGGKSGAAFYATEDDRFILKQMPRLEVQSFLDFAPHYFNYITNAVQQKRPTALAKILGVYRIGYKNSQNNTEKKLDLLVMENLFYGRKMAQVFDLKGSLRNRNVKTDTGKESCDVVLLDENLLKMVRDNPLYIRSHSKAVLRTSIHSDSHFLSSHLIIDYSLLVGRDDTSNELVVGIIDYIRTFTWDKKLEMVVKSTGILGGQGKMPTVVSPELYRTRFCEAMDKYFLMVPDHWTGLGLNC
Protocol: as §1

[29] = target: kinases in BCWM.1 cells (Homo sapiens, UniProt Q9Y572); conditions: RIPK3; Lys2; 1 μM, 90 min; GF
Protocol: as §1

kinases in BCWM.1 cells (Homo sapiens, UniProt O95747), sequence (O95747 2-527 limits assumed): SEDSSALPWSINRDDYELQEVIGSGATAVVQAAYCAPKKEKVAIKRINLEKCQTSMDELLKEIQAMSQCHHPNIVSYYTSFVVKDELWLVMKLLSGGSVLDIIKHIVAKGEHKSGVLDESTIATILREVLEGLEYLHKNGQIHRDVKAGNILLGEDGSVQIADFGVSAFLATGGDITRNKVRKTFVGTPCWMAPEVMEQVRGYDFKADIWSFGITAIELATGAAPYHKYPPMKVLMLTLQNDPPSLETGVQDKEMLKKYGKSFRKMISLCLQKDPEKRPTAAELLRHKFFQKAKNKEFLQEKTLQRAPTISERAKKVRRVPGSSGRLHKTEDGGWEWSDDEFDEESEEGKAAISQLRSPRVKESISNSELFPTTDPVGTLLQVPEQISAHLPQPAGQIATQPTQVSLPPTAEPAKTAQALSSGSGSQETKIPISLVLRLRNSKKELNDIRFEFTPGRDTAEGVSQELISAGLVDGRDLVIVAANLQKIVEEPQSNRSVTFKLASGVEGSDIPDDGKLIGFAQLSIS

| Compound | % change of MS signal compared to control sample [1] | % change of MS signal compared to control sample [2] | % change of MS signal compared to control sample [3] | % change of MS signal compared to control sample [4] | % change of MS signal compared to control sample [5] | % change of MS signal compared to control sample [6] | % change of MS signal compared to control sample [7] | % change of MS signal compared to control sample [8] | % change of MS signal compared to control sample [9] | % change of MS signal compared to control sample ([10]; RSK2 domain1) | % change of MS signal compared to control sample ([10]; RSK2 domain2) | % change of MS signal compared to control sample [11] | % change of MS signal compared to control sample [12] | % change of MS signal compared to control sample [13] | % change of MS signal compared to control sample [14] | % change of MS signal compared to control sample [15] | % change of MS signal compared to control sample [16] | % change of MS signal compared to control sample [17] | % change of MS signal compared to control sample [18] | % change of MS signal compared to control sample [19] | also measured |
| --- | --- | --- | --- | --- | --- | --- | --- | --- | --- | --- | --- | --- | --- | --- | --- | --- | --- | --- | --- | --- | --- |
| C=CC(=O)N1CC[C@H](Nc2nccc(Nc3ncc(C(=O)Nc4c(C)cccc4C)s3)n2)C1 [Example I-3] | 4% | 96.7% | 22.3% | −17.6% | −8.6% | −51.5% | −5.5% | 39.9% | −15.2% | −15.5% | −16.5% | 0.9% | −5.5% | −29.4% | −38.8% | 2.5% | −17.7% | −14.5% | 4.7% | 27% | % change of MS signal compared to control sample [20]: −7.6%; % change of MS signal compared to control sample [21]: 17.3%; % change of MS signal compared to control sample [22]: 1.6%; % change of MS signal compared to control sample [23]: 40.2%; % change of MS signal compared to control sample [24]: 6.4%; % change of MS signal compared to control sample [25]: −1.6%; % change of MS signal compared to control sample [26]: 8%; % change of MS signal compared to control sample [27]: −9.6%; % change of MS signal compared to control sample [28]: −4.6%; % change of MS signal compared to control sample [29]: 22% |
| CCC(=O)N1CC[C@H](Nc2nccc(Nc3ncc(C(=O)Nc4c(C)cccc4C)s3)n2)C1 [Example I-9] | 13.9% | 86.1% | 5.3% | −3.8% | −0.6% | −8.6% | −16.8% | 18.5% | −8.3% | −8.4% | 1.6% | 4.3% | 2.8% | −0.9% | −26.2% | 4% | −9.4% | −5.8% | −1.9% | −3.9% | % change of MS signal compared to control sample [20]: 4.6%; % change of MS signal compared to control sample [21]: −1.2%; % change of MS signal compared to control sample [22]: 4.3%; % change of MS signal compared to control sample [23]: 30.1%; % change of MS signal compared to control sample [24]: 15.4%; % change of MS signal compared to control sample [25]: 10.8%; % change of MS signal compared to control sample [26]: 11.5%; % change of MS signal compared to control sample [27]: 2.9%; % change of MS signal compared to control sample [28]: −4.6%; % change of MS signal compared to control sample [29]: −27% |
